This is an account of results in publication PMC8980959, “Ceramide kinase regulates acute wound healing by suppressing 5-oxo-ETE biosynthesis and signaling via its receptor OXER1” (Journal of Lipid Research, 2022).

Experiment [1] addresses T1, ceramide kinase (CERK), mouse (Mus musculus, UniProt Q8K4Q7).
T1 sequence (Q8K4Q7 1-531): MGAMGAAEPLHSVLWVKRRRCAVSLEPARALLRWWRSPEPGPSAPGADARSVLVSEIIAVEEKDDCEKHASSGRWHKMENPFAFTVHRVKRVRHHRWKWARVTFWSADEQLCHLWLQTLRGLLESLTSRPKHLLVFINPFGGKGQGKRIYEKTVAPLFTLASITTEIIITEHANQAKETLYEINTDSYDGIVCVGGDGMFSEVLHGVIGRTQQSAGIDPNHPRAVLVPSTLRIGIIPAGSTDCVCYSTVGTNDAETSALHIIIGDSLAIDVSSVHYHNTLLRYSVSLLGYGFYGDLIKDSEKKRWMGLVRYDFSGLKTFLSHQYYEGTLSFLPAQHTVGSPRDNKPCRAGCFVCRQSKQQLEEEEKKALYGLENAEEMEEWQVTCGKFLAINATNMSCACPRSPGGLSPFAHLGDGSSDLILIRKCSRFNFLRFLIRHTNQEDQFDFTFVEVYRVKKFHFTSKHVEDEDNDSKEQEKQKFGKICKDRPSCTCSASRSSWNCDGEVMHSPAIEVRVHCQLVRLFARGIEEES
Put plainly: C1P product levels by UPLC ESI-MS/MS in mouse dermal fibroblasts, […]. In kind it is cell-based.

For experiment [2], the target named is T2, ceramide kinase (CERK), human (Homo sapiens, UniProt Q8TCT0).
T2 sequence (Q8TCT0 1-537): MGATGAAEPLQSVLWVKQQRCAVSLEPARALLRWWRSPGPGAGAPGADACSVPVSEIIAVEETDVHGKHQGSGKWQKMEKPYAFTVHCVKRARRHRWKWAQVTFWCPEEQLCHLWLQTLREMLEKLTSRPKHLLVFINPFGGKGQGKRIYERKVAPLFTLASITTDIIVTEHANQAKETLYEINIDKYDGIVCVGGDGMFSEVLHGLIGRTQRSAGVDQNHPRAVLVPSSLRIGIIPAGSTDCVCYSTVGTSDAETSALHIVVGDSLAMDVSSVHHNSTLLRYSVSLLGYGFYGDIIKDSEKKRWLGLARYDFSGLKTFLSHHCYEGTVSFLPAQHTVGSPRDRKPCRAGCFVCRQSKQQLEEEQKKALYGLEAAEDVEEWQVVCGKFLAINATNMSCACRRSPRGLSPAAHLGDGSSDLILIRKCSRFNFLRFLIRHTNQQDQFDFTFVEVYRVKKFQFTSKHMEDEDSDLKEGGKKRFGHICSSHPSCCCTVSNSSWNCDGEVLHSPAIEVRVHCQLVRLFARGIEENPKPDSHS
As to the kind of experiment: in vitro CERK activity assay. In kind it is biochemical.

For experiment [3], the target named is T1, ceramide kinase (CERK), mouse. Put plainly: in vitro CERK activity assay. Format: biochemical.

`O=C(Nc1nc2ccc(NC(=O)C34CC5CC(CC(C5)C3)C4)cc2s1)c1ccccc1` [NVP-231, N-[2-(Benzoylamino)-6-benzothiazolyl]tricyclo[3.3.1.13,7]decane-1-carboxamide]: the “C1P product levels by UPLC ESI-MS/MS in mouse dermal fibroblasts, 100 nM” value in experiment [1] is recorded as “significantly reduced by SYR382141 in pDFs to an equivalent or greater extent as NVP-231”.
As to SYR382141, the IC50 in experiment [2] is 5 nM; in experiment [3], 9 nM.

By IC50 is commonly meant the concentration that gives 50% inhibition. Low values mean greater potency in that assay, high ones weaker potency in that assay.
